# Measurements from US7687456B2, “Compounds for enzyme inhibition” (Proteolix, Inc., priority 2005, dated 2010).
# Test system: proteasome CT-L activity
# Test: Proteasome CT-L inhibition in blood of mice one hour after oral dosing
# Format: in vivo
# Conditions: 20 mg/kg PO, one hour post-dosing, blood lysate, substrate LLVY-AMC, relative to vehicle-dosed cohort
# Method: Compounds were formulated in 10% PS80/NaCitrate (pH 3) vehicle and administered to mice orally (PO) (3 animals/cohort). One hour post-dosing, the animals were sacrificed and the following tissues harvested: blood, brain, adrenal gland, heart and liver. Whole blood (˜200 μl) was washed twice with PBS and lysed by hypotonic shock (300 μl 50 mM Tris pH 8, 5 mM EDTA). Blood lysates were stored at −80° C. until assayed. Blood lysates were clarified by centrifugation in a microcentrifuge. The CT-L specific activity of proteasome in each lysate was evaluated by determining: a) the protein concentration by modified Bradford assay with bovine gamma globulin as a standard; and b) the rate of cleavage of the fluorogenic proteasome substrate LLVY-AMC. The percent proteasome activity for the analog-treated animals was calculated by dividing of the average specific activity for each analog-dosed cohort by the average specific activity of the vehicle-dosed cohort. Percent proteasome inhibition was calculated by subtracting percent proteasome activity from 100. Equivalents
row,Structure (SMILES),proteasome CT-L inhibition
1,Cc1cc(C(=O)N[C@@H](Cc2ccccn2)C(=O)N[C@@H](Cc2ccccc2)C(=O)N[C@@H](CC(C)C)C(=O)[C@@]2(C)CO2)no1 [Compound 055],> 80%
2,COC[C@H](NC(=O)c1cc(C)no1)C(=O)N[C@@H](COC)C(=O)N[C@@H](CC(C)C)C(=O)[C@@]1(C)CO1 [Compound 085],> 50%
3,COC[C@H](NC(=O)c1ccon1)C(=O)N[C@@H](COC)C(=O)N[C@@H](CC(C)C)C(=O)[C@@]1(C)CO1 [Compound 083],> 80%
4,COC[C@H](NC(=O)c1cc(C)on1)C(=O)N[C@H](C(=O)N[C@@H](CC(C)C)C(=O)[C@@]1(C)CO1)C(C)C [Compound 029],> 70%
5,COC[C@H](NC(=O)c1cc(C)on1)C(=O)N[C@@H](Cc1cscn1)C(=O)N[C@@H](CC(C)C)C(=O)[C@@]1(C)CO1 [Compound 039],> 75%
6,COC[C@H](NC(=O)c1cc(C)on1)C(=O)N[C@@H](COC)C(=O)N[C@@H](Cc1ccccc1)C(=O)[C@@]1(C)CO1 [Compound 088],> 80%
7,COC[C@H](NC(=O)c1cc(C)on1)C(=O)N[C@@H](COC)C(=O)N[C@@H](CC(C)C)C(=O)[C@@]1(C)CO1 [Compound 075],> 80%
8,COC[C@H](NC(=O)c1cc(C)on1)C(=O)N[C@@H](COC)C(=O)N[C@@H](Cc1ccc(F)cc1)C(=O)[C@@]1(C)CO1 [Compound 091],> 80%
9,COC[C@H](NC(=O)c1cc(C)on1)C(=O)N[C@@H](C)C(=O)N[C@@H](CC(C)C)C(=O)[C@@]1(C)CO1 [Compound 045],> 80%

# Same assay, conditions: 40 mg/kg PO, one hour post-dosing, blood lysate, substrate LLVY-AMC, relative to vehicle-dosed cohort
row,Structure (SMILES),proteasome CT-L inhibition
1,CC(C)C[C@H](NC(=O)c1cc(CN2CCOCC2)on1)C(=O)N[C@@H](Cc1cscn1)C(=O)N[C@@H](CC(C)C)C(=O)[C@@]1(C)CO1 [Compound 035],> 90%
2,CC(C)C[C@H](NC(=O)c1cc(CN2CCOCC2)on1)C(=O)N[C@@H](Cc1ccccc1)C(=O)N[C@@H](CC(C)C)C(=O)[C@@]1(C)CO1 [Compound 023],> 80%
3,COCC[C@H](NC(=O)c1cc(C(C)C)on1)C(=O)N[C@@H](Cc1ccccc1)C(=O)N[C@@H](CC(C)C)C(=O)[C@@]1(C)CO1 [Compound 068],> 70%
4,CC(C)C[C@H](NC(=O)[C@H](Cc1ccccc1)NC(=O)[C@@H](NC(=O)c1cc(CN2CCOCC2)on1)C(C)C)C(=O)[C@@]1(C)CO1 [Compound 061],> 80%
5,COC[C@H](NC(=O)c1cc(C)on1)C(=O)N[C@@H](Cc1ccccc1)C(=O)N[C@@H](CC(C)C)C(=O)[C@@]1(C)CO1 [Compound 010],> 90%
